Experimental data as given in patent publication US8957071B2, “Treatment of vascular, autoimmune and inflammatory diseases using low dosages of IMPDH inhibitors” (Aspreva Pharmaceuticals S.A., priority 2005, dated 2015).

Legend:
[1] = Serum mycophenolic acid levels in Ldlr−/− mice by commercial assay; type: in vivo
Method: (§1) Diet W will be formulated with CellCept® incorporated directly into the chow, at concentrations of 0.04%, 0.08% or 0.26% mycophenolate mofetil by weight. When administered in this way, the mice will be expected to consume 15 mg/kg/day (“low dose”), 30 mg/kg/day (“low dose”), or 100 mg/kg/day (“high-dose”) of the drug. Mice will be sacrificed 12 weeks after feeding on the study diet, and the endpoints determined.
No MPA was detected in the serum of control mice (data not shown).

male Ldlr−/− mice [2] = experiment: Atherosclerosis in Ldlr−/− (LDLRKO) mice on Western-type diet: percentage of aortic sinus occluded by plaque; type: in vivo; settings: 12 weeks; for reduction of atherosclerosis (AS): male Ldlr−/− mice; for percentage of aortic sinus occluded by plaque: control 16%
From the text: (§2) This example illustrates the effect of low-dose MMF on mice lacking the low-density lipoprotein receptor B6.129S7-Ldlrtm1Her/J (hereinafter referred to as LDLRKO mice) obtained from Jackson Labs. When placed on a high-fat, high-cholesterol “Western-type” diet, these mice develop severe atherosclerosis (Ishibashi et al., 1994, J Clin Invest. 93(5):1885-93).
as §1
The primary endpoint will be evaluated using histological analysis of plaque area at the aortic root. The total lesion area in oil red O-stained cryostat sections of the aortic root is quantified using a Leica image analysis system. Mean lesion area (as a percentage of aortic cross-sectional area) is calculated from 10 oil red O-stained sections, beginning at the appearance of the tricuspid valves.
(§3) Plaque composition is analysed as a secondary endpoint using oil red O staining (for lipid content—see above), Movat's pentachrome staining (for lesion complexity including extracellular matrix and glycosaminoglycans), and haematoxylin and eosin (for macrophage content). The average atherosclerotic area is compared between the groups using the two-way ANOVA test. Additional secondary endpoints will be plasma levels of total cholesterol, HDL cholesterol, LDL cholesterol, triglycerides, and glucose, as well as en face visualization of the thoracic and abdominal aortas stained with oil red O.
Low-dose therapy (15 mg/kg/day, a dosage equivalent to approximately 1 gram per day in a 70 kg human) reduced AS by 31% (from 16% to 11% of the sinus) whereas high-dose therapy reduced AS by 61% (from 16% to 6.2%). The response was dose-dependent. Quantification was performed by a single, trained observer blinded to treatment group.

male Ldlr−/− mice [3] = experiment: Serum lipids (triglycerides, phospholipids, HDL) in Ldlr−/− mice on Western-type diet; type: in vivo; settings: for serum phospholipid (PPL) levels: control 1078+91 mg/dL; for serum triglyceride (Tgs) levels: control 1198+137 mg/dL
From the text: as §2, §1, §3
The response was dose-dependent. Quantification was performed by a single, trained observer blinded to treatment group. Mouse groups are the same as for FIG. 1.
Importantly, levels of serum HDL-cholesterol are not lowered by MMF treatment. Quantification was performed by a single, trained observer blinded to treatment group. Mouse groups are the same as for FIG. 1.

[4] = system: male New Zealand White (NZW) rabbits; experiment: High-cholesterol New Zealand White rabbit model of atherogenesis (Example 2); type: in vivo; settings: 1 or 5 mg/kg by gastric gavage daily, 12 weeks
Method: This example illustrates the use of low dose MMF in the treatment of a rabbit model of atherogenesis.
Study Design: Studies are done in 30 male New Zealand White (NZW) rabbits weighing 1.0-1.5 kg at the beginning of the experiment. After obtaining baseline blood samples, rabbits are fed ad libitum a 1% cholesterol diet for 12 weeks. This diet is prepared by dissolving cholesterol (Sigma, St. Louis, Mo.) in 100% ethanol at a temperature of 60° C., mixing this solution with standard rabbit chow (Purina), and allowing the complete evaporation of the ethanol.
The rabbits are divided into three groups and treated as follows: (1) CHOL+MMF (extra-low) group (n=10) receives by gastric gavage 5 mg/kg of MMF in 0.4 ml of water; (2) CHOL+MMF (ultra-low) group (n=10) receives by gastric gavage 1 mg/kg of MMF in 0.4 ml of water; and (3) CHOL group (n=10) receives by the same route daily 0.4 ml of water. […] The MMF and vehicle are given daily throughout the 12 experimental weeks.
Blood samples for determination of plasma cholesterol and triglyceride are taken every 2 weeks. […]
Determination of aortic cholesterol content: Lipids are isolated from the aortic segments as described by Folch et al., 1957, J Biol Chem. […]:497-509. […] Cholesterol is determined in the lipid extract by the method of Zlatikis et al., 1953, J Lab Clin Med. 1:486-492. […]

[5] = cited from earlier work
rabbits = settings: 30 mg/kg/day; cited from earlier work
[6] = high-dose (100 mg/kg/day) in chow

| SMILES | average serum mycophenolic acid (MPA) level ([1]; high-dose group (MMF 100 mg/kg/day in chow)) | average serum mycophenolic acid (MPA) level ([1]; low-dose group (MMF 15 mg/kg/day in chow)) | reduction of atherosclerosis (AS) (male Ldlr−/− mice [2]; [6]) | percentage of aortic sinus occluded by plaque (male Ldlr−/− mice [2]; [6]) | reduction of atherosclerosis (AS) (male Ldlr−/− mice [2]; low-dose 15 mg/kg/day in chow) | percentage of aortic sinus occluded by plaque (male Ldlr−/− mice [2]; low-dose 15 mg/kg/day in chow) | serum phospholipid (PPL) levels (male Ldlr−/− mice [3]; high-dose (100 mg/kg/day)) | serum triglyceride (Tgs) levels (male Ldlr−/− mice [3]; high-dose (100 mg/kg/day)) | serum phospholipid (PPL) levels (male Ldlr−/− mice [3]; low-dose 15 mg/kg/day) | serum triglyceride (Tgs) levels (male Ldlr−/− mice [3]; low-dose 15 mg/kg/day) | effect on HDL levels (male Ldlr−/− mice [3]; male Ldlr−/− mice, same groups as FIG. 1) | size and severity of the atherosclerotic lesion (intima/media ratio, aortic cholesterol content), expected [4] | solubility in water [5] | effect on atherogenic potential of a high-cholesterol diet (rabbits) |
| --- | --- | --- | --- | --- | --- | --- | --- | --- | --- | --- | --- | --- | --- | --- |
| COc1c(C)c2c(c(O)c1C/C=C(\C)CCC(=O)O)C(=O)OC2 [MPA, mycophenolic acid] | 3.65 ± 0.3 mg/L | 1.16 ± 0.09 mg/L |  |  |  |  |  |  |  |  |  |  |  |  |
| COc1c(C)c2c(c(O)c1C/C=C(\C)CCC(=O)OCCN1CCOCC1)C(=O)OC2 [mycophenolate mofetil, morpholinoethyl E-6-(1,3-dihydro-4-hydroxy-6-methoxy-7-methyl-3-oxo-5-isobenzofuranyl)-4-methyl-4-hexenoate] |  |  | 61% | 6.2% | 31% | 11 % of the sinus | 696+115 mg/dL | 452+80 mg/dL | 964+87 mg/dL | 994+149 mg/dL | does not appear to affect HDL levels | significantly reduced | insoluble in water | ameliorated the atherogenic potential of a high-cholesterol diet |
